Drawing on BindingDB's records for doi:10.1021/acs.jmedchem.0c00988 (Rapt Therapeutics, 2020), this text covers IC50 for 22 compounds.

One experiment can be described thus: Antagonist activity at CCR4 in human Treg cells assessed as inhibition of CCL22-mediated chemotaxis preincubated for 30 mins followed by CCL22 addition and measured after 60 mins in presence of 100% human serum by CellTiter-Glo assay. (In ATP-based viability assays light output follows the ATP content of the culture.)
Usually IC50 stands for the concentration at which inhibition is half-maximal. On to `C[C@H](c1ccc(Cl)cc1Cl)n1nc(C#N)c2ncc(N3CC([C@H]4CCCN(CCO)C4)C3)nc21`, for which the IC50 was determined as 33 nM.

The nature of a further experiment: Antagonist activity at CCR4 in mouse Treg cells assessed as inhibition of CCL22-mediated chemotaxis preincubated for 30 mins followed by CCL22 addition and measured after 60 mins in presence of 100% mouse serum by CellTiter-Glo assay.
With `C[C@H](c1ccc(Cl)cc1Cl)n1nc(C#N)c2ncc(N3CC([C@H]4CCCN(CCO)C4)C3)nc21`, the IC50 was determined as 39 nM.

Another experiment can be described thus: Antagonist activity at CCR4 in human CCRF-CEM cells assessed as inhibition of CCL17-mediated chemotaxis preincubated for 30 mins followed by CCL17 addition and measured after 60 mins in presence of 100% human serum by CellTiter-Glo assay.
With `C[C@H](c1ccc(Cl)cc1Cl)n1nc(C#N)c2ncc(N3CC([C@H]4CCCN(CCO)C4)C3)nc21`, the half-maximal inhibitory concentration (IC50) is 64 nM.

A short description of a further experiment: Antagonist activity at CCR4 in human CCRF-CEM cells assessed as inhibition of CCL22-mediated chemotaxis preincubated for 30 mins followed by CCL22 addition and measured after 60 mins in presence of 100% human serum by CellTiter-Glo assay.
Consider `Cc1nn([C@H](C)c2ccc(Cl)cc2Cl)c2nc(N3CC([C@H]4CCCN(CCS(N)(=O)=O)C4)C3)cnc12`, for which the IC50 worked out at 717 nM.

For the compound `Cc1nn([C@H](C)c2ccc(Cl)cc2Cl)c2nc(N3CC([C@H]4CCCN(CCNS(C)(=O)=O)C4)C3)cnc12`, the IC50 was determined as 136 nM.

Turning to `Cc1nn([C@H](C)c2ccc(Cl)cc2Cl)c2nc(N3CC([C@H]4CCCN(CCNS(=O)(=O)C(C)C)C4)C3)cnc12`, the IC50 turned out to be 115 nM.

Take `Cc1nn([C@H](C)c2ccc(Cl)cc2Cl)c2nc(N3CC([C@H]4CCCN(CCS(C)(=O)=O)C4)C3)cnc12`: the half-inhibitory concentration (IC50) is 575 nM.

As to `Cc1nn([C@H](C)c2ccc(Cl)cc2Cl)c2nc(N3CC([C@H]4CCCN(CCCS(C)(=O)=O)C4)C3)cnc12`, the concentration for half-maximal inhibition (IC50) was 259 nM.

For the compound `Cc1nn([C@H](C)c2ccc(Cl)cc2Cl)c2nc(N3CC([C@H]4CCCN(CCCC(=O)O)C4)C3)cnc12`, the IC50 is 559 nM.

As for `Cc1nn([C@H](C)c2ccc(Cl)cc2Cl)c2nc(N3CC([C@H]4CCCN(CCC(=O)O)C4)C3)cnc12`, the half-inhibitory concentration (IC50) was determined as 370 nM.

For `C[C@H](c1ccc(Cl)cc1Cl)n1nc(C#N)c2ncc(N3CC([C@H]4CCCN(CCC(=O)O)C4)C3)nc21`, the 50% inhibitory concentration (IC50) turned out to be 409 nM.

`C[C@H](c1ccc(Cl)cc1Cl)n1nc(C#N)c2ncc(N3CC([C@H]4CCCN(CC(=O)O)C4)C3)nc21`: the IC50 was 775 nM.

For `Cc1nn([C@H](C)c2ccc(Cl)cc2Cl)c2nc(N3CC([C@H]4CCCN(CCC(N)=O)C4)C3)cnc12`, the 50% inhibitory concentration (IC50) was 247 nM.

Turning to `CC(=O)NCCN1CCC[C@H](C2CN(c3cnc4c(C)nn([C@H](C)c5ccc(Cl)cc5Cl)c4n3)C2)C1`, the half-maximal inhibitory concentration (IC50) was 40 nM.

For `Cc1nn([C@H](C)c2ccc(Cl)cc2Cl)c2nc(N3CC([C@H]4CCCN(CCNC(=O)C(C)C)C4)C3)cnc12`, the concentration for half-maximal inhibition (IC50) was found to be 59 nM.

Consider `COC(=O)NCCN1CCC[C@H](C2CN(c3cnc4c(C)nn([C@H](C)c5ccc(Cl)cc5Cl)c4n3)C2)C1`, for which the IC50 was 133 nM.

As to `C[C@H](c1ccc(Cl)cc1Cl)n1nc(C#N)c2ncc(N3CC([C@H]4CCCN(Cc5cnc[nH]5)C4)C3)nc21`, the IC50 worked out at 97 nM.

As for `C[C@H](c1ccc(Cl)cc1Cl)n1nc(C#N)c2ncc(N3CC([C@H]4CCCN(CCC#N)C4)C3)nc21`, the IC50 is 523 nM.

Consider `C[C@H](c1ccc(Cl)cc1Cl)n1nc(C#N)c2ncc(N3CC([C@H]4CCCN(CCC(F)(F)F)C4)C3)nc21`, for which the IC50 stood at 1500 nM.

Consider `Cc1nn([C@H](C)c2ccc(Cl)cc2Cl)c2nc(N3CC([C@H]4CCCN(CCCO)C4)C3)cnc12`, for which the IC50 came to 109 nM.

For the compound `Cc1nn([C@H](C)c2ccc(Cl)cc2Cl)c2nc(N3CC([C@H]4CCCN(CCO)C4)C3)cnc12`, the IC50 is 74 nM.

In the case of `C[C@H](c1ccc(Cl)cc1Cl)n1nc(C#N)c2ncc(N3CC([C@H]4CCCN(CCO)C4)C3)nc21`, the half-inhibitory concentration (IC50) was 50 nM.

As to `C[C@H](c1ccc(Cl)cc1Cl)n1nc(C(N)=O)c2ncc(N3CC([C@H]4CCCN(CCO)C4)C3)nc21`, the IC50 stood at 36 nM.

As for `CNC(=O)c1nn([C@H](C)c2ccc(Cl)cc2Cl)c2nc(N3CC([C@H]4CCCN(CCO)C4)C3)cnc12`, the half-inhibitory concentration (IC50) turned out to be 446 nM.

As for `C[C@H](c1ccc(Cl)cc1Cl)n1nc(C(=O)N(C)C)c2ncc(N3CC([C@H]4CCCN(CCO)C4)C3)nc21`, the IC50 amounted to 379 nM.
